Results: publication PMC5944968, “A multi-chamber microfluidic intestinal barrier model using Caco-2 cells for drug transport studies” (PLoS ONE, 2018)
Like-named read-outs stand apart in the source and are kept apart here. Each block holds one compound with its values, some of them ahead of it.

Tests used:
P-gp = experiment: Rh 123 bidirectional permeability / P-gp efflux across Caco-2 monolayers in microfluidic device; assay type: in vitro ADME; conditions: human, day 10 of cell culture; for Papp at 10 μM: Caco-2, 10 μM Rh 123, microfluidic device, n = 3
Method: Before carrying out the Rh 123 studies, buffer^+ was flowed to both the upper and lower channels for 1 hr. Following that Rh 123 (Sigma-Aldrich, Denmark) prepared in buffer^+ to a concentration of 10 μM was flowed to the basolateral side. 200μl of buffer^+ was added to each waste reservoirs. At each 15min interval, 150 μl was removed from the respective waste reservoirs with replacement of 150μl of buffer^+. Studies were carried out in triplicates.
(§1) The Caco-2 translocation of peptide, [^3H]mannitol or Rh 123 over Caco-2 layers is expressed as the apparent permeability (Papp), given by: Papp=dQ/dt1/AC0 (2) Where dQ/dt is the steady-state flux across the cell layer (pmol/s), A is the surface area (1.12 cm^2 for Transwell, 0.1 cm^2 for microfluidic), and C0 is the initial sample concentration.
For the P-gp studies, the collected samples were analyzed for Rh 123 content using a fluorescence plate reader with excitation/emission of 485/546nm, based on standard curves prepared from test solutions. The efflux ratio of P-gp was determined by: effluxratio=Papp(Basal→Apical)/Papp(Apical→Basal) (4)

Caco-2 monolayers [1] = experiment: TEER of Caco-2 monolayers in microfluidic device after permeation enhancer; assay type: cell-based, Human
Method: TEER measurements (Ω) of the Caco-2 cells cultured in the microfluidic device were obtained by coupling the connecting wires of the electrodes to a multimeter (Keithley, USA) using alligator clips. Each chamber contained two sets of top electrodes and two sets of bottom electrodes. Each time the TEER values were recorded, only one top electrode and one bottom electrode are connected to the multimeter. Four different configurations of TEER values were recorded, averaged to calculate the final TEER values measured across the microchamber.
The final TEER values (Ω cm^2) were determined by subtracting the baseline measurement in the absence of cells (Rbaseline) from the read out (R1) and multiplying with the area of cell culture (Ao, 1.12 cm^2 for Transwell and 0.1 cm^2 for the microfluidic device) as shown in Eq 1.
(§2) Buffer^+ was prepared by mixing Hank’s Buffered Saline solution (HBSS; Gibco, Denmark), 0.1% (wt/vol) OVA (ovalbumin; from chicken egg white, Sigma, Denmark) and 10 mM HEPES (HEPES; Sigma, Denmark) at pH 7.4.
To validate the accuracy and dynamic span of TEER values acquired from the electrodes on the microfluidic chip, a permeation enhancer, tetradecyl-β-D-maltoside (TDM), was introduced to the Caco-2 monolayers for two hours. The concentration of TDM used in the earlier reported studies is expected to cause a transient disruption of the Caco-2 monolayer integrity, while causing minimal cell death, which is reversible after 24 hours in fresh cell culture medium.

Caco-2 monolayers [2] = experiment: TEER of Caco-2 monolayers in Transwell inserts after permeation enhancer; assay type: cell-based, Human; conditions: recovering to normal levels within 24h in fresh medium
Method: TEER was measured in Transwell inserts with Millicell ERS-2 chopstick Silver/SilverChloride (Ag/AgCl) electrodes (Millipore, USA), and calculated via Eq 1 (see below). […] Sigma, Denmark), insulin (Novo Nordisk, Denmark) and tetradecyl-β-D-Maltoside (TDM; Sigma, Denmark) were all prepared using buffer^+ as the diluent. Buffer^+ was prepared by mixing Hank’s Buffered Saline solution (HBSS; Gibco, Denmark), 0.1% (wt/vol) OVA (ovalbumin; from chicken egg white, Sigma, Denmark) and 10 mM HEPES (HEPES; Sigma, Denmark) at pH 7.4. […] The gentle shaking was to ensure there was little unstirred diffusion layers of fluid in the basolateral region. […] PerkinElmer), after mixing with scintillation fluid (Microscint-40; PerkinElmer), along with a peptide and FD4 content. After the experiments, the cells were washed twice with buffer^+ and replenished with medium for 24 hour recovery. In the microfluidic system, similar to the Transwell studies, before the start of experiment, the DMEM was replaced with buffer^+. Buffer^+ was flowed into the system for 1 hr. Subsequently, the buffer was changed to the test solutions in the top fluidic layer. Flow rate was set at 3 μl/min (in both the upper and lower layers). In the collection reservoirs of the basolateral chambers, 200 μl of buffer was added to each of the collection reservoirs. […]

Caco-2 monolayers [3] = system: Caco-2 monolayers
Method: as §2, §1

Papp at 10 μM (P-gp; read-out: Papp(apical → basal)): ~1.03 ×10⁻⁶ cm/s | Papp at 10 μM (P-gp; read-out: Papp(basal → apical)): ~11.2 ×10⁻⁶ cm/s | efflux ratio at 10 μM (P-gp; Caco-2, microfluidic device, read-out: efflux ratio Papp(Basal→Apical)/Papp(Apical→Basal)): ~10.8
Structure (SMILES): COC(=O)c1ccccc1-c1c2ccc(=N)cc-2oc2cc(N)ccc12 [Rh 123, Rhodamine 123]

Structure (SMILES): CCCCCCCCCCCCCCO[C@@H]1O[C@H](CO)[C@@H](O[C@H]2O[C@H](CO)[C@@H](O)[C@H](O)[C@H]2O)[C@H](O)[C@H]1O [TDM, tetradecyl-β-D-maltoside]
TEER in the presence of TDM, % of initial values (Caco-2 monolayers [1]; TDM for two hours): 21% | TEER recovery, % of initial values (Caco-2 monolayers [1]; after 24 hours of continuous perfusion with cell culture medium): 90% | TEER change following TDM addition (Caco-2 monolayers [1]; recovering to normal levels within 24h in fresh medium): reversibly decreased | TEER change following TDM addition (Caco-2 monolayers [2]): reversibly decreased

Papp in microfluidic chip compared to static Transwell cultures (Caco-2 monolayers [3]): slightly higher (not significant)
Structure (SMILES): OC[C@@H](O)[C@@H](O)[C@H](O)[C@H](O)CO [mannitol]
